Experimental findings from US11034650B2, “Compounds useful for treating a Mannheimia haemolytica or Histophilus somni infection” (Intervet Inc., priority 2016, dated 2021) are described below.

Each structure is given as a SMILES string. ≈ marks a conversion by molar mass, not a printed value.

The first assay relates to Mannheimia haemolytica MH 12587 (1071, BRD field isolate, macrolide-resistance: erm+, E+). The assay can be described thus: MIC, broth-microdilution (CLSI VET01-A4), strain MH 12587. The following applies: Mannheimia haemolytica strain MH 12587, broth-microdilution; unit assumed. In kind it is cell-based. Put shortly: (§1)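 Doubling dilution series in trays; visual read, MIC = lowest conc. with no visible turbidity; interpretation per CLSI VET01-S3.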
For the compound `Cc1ccc(CNCc2ccc(C#Cc3ccc(C(=O)NC(C(=O)NO)C(C)(C)O)cc3)cc2)cc1` (stereo not shown) [Compound 233], the MIC MH 12587 turned out to be 1.6 µg/mL (≈ 3.3 µM).

Turning to `CC(C)(O)[C@H](NC(=O)c1ccc(C#Cc2ccc(CNCc3ccccc3)cc2)cc1)C(=O)NO` [Compound 223], the MIC MH 12587 turned out to be 0.8 µg/mL (≈ 1.7 µM).

On to `CSC(C)(C)[C@H](NC(=O)c1ccc(C#Cc2ccc(CNCc3ccccn3)s2)cc1)C(=O)NO` [Compound 307], for which the MIC MH 12587 is 1.6 µg/mL (≈ 3.15 µM).

`CON=C(C)[C@H](NC(=O)c1ccc(C#Cc2ccc(CNC3CC3)cc2)cc1)C(=O)NO` [Compound 378] registered an MIC MH 12587 of 0.2 µg/mL (≈ 0.46 µM).

Another assay has as its system Mannheimia haemolytica MH 13065 (XB0446-6003.9, BRD field isolate). As to the kind of experiment: MIC, broth-microdilution (CLSI VET01-A4), strain MH 13065. Conditions: Mannheimia haemolytica strain MH 13065, broth-microdilution; unit assumed. In kind it is cell-based. In short, it runs like this: as §1
Compound `Cc1ccc(CNCc2ccc(C#Cc3ccc(C(=O)NC(C(=O)NO)C(C)(C)O)cc3)cc2)cc1` (stereo not shown) [Compound 233] returned an MIC MH 13065 of 0.4 µg/mL (≈ 0.824 µM).

`CC(C)(O)[C@H](NC(=O)c1ccc(C#Cc2ccc(CNCc3ccccc3)cc2)cc1)C(=O)NO` [Compound 223] had an MIC MH 13065 of 0.4 µg/mL (≈ 0.848 µM).

In turn, `CSC(C)(C)[C@H](NC(=O)c1ccc(C#Cc2ccc(CNCc3ccccn3)s2)cc1)C(=O)NO` [Compound 307] gave an MIC MH 13065 of 0.8 µg/mL (≈ 1.57 µM).

Regarding `CON=C(C)[C@H](NC(=O)c1ccc(C#Cc2ccc(CNC3CC3)cc2)cc1)C(=O)NO` [Compound 378], the MIC MH 13065 came out at 0.8 µg/mL (≈ 1.84 µM).

In a further assay the test system is Mannheimia haemolytica MH 13093 (XB0472-6014.1, BRD field isolate). As to the kind of experiment: MIC, broth-microdilution (CLSI VET01-A4), strain MH 13093. Type of assay: cell-based. Conditions: Mannheimia haemolytica strain MH 13093, broth-microdilution; unit assumed. Put shortly: as §1
(Broth dilution looks for growth in wells or tubes with falling amounts of substance.)
`Cc1ccc(CNCc2ccc(C#Cc3ccc(C(=O)NC(C(=O)NO)C(C)(C)O)cc3)cc2)cc1` (stereo not shown) [Compound 233] gave an MIC MH 13093 of 0.8 µg/mL (≈ 1.65 µM).

Take `CC(C)(O)[C@H](NC(=O)c1ccc(C#Cc2ccc(CNCc3ccccc3)cc2)cc1)C(=O)NO` [Compound 223]: the MIC MH 13093 is 0.4 µg/mL (≈ 0.848 µM).

Compound `CSC(C)(C)[C@H](NC(=O)c1ccc(C#Cc2ccc(CNCc3ccccn3)s2)cc1)C(=O)NO` [Compound 307] displayed an MIC MH 13093 of 1.6 µg/mL (≈ 3.15 µM).

`CON=C(C)[C@H](NC(=O)c1ccc(C#Cc2ccc(CNC3CC3)cc2)cc1)C(=O)NO` [Compound 378] returned an MIC MH 13093 of 0.8 µg/mL (≈ 1.84 µM).

The subject of the next assay is Pasteurella multocida PM 6267 (P 2225 (L386), reference strain, mouse infection strain). As to the kind of experiment: MIC, broth-microdilution (CLSI VET01-A4), strain PM 6267. Type of assay: cell-based. Conditions: Pasteurella multocida strain PM 6267, broth-microdilution; unit assumed. Put shortly: as §1
Regarding `Cc1ccc(CNCc2ccc(C#Cc3ccc(C(=O)NC(C(=O)NO)C(C)(C)O)cc3)cc2)cc1` (stereo not shown) [Compound 233], the MIC PM 6267 was not above 0.1 µg/mL.

`CC(C)(O)[C@H](NC(=O)c1ccc(C#Cc2ccc(CNCc3ccccc3)cc2)cc1)C(=O)NO` [Compound 223] gave an MIC PM 6267 not above 0.1 µg/mL.

In turn, `CSC(C)(C)[C@H](NC(=O)c1ccc(C#Cc2ccc(CNCc3ccccn3)s2)cc1)C(=O)NO` [Compound 307] gave an MIC PM 6267 of 0.8 µg/mL (≈ 1.57 µM).

On to `CON=C(C)[C@H](NC(=O)c1ccc(C#Cc2ccc(CNC3CC3)cc2)cc1)C(=O)NO` [Compound 378], for which the MIC PM 6267 turned out to be 1.6 µg/mL (≈ 3.68 µM).

The next assay deals with Pasteurella multocida PM 6391 (ATCC 43137, reference strain). The assay can be described thus: MIC, broth-microdilution (CLSI VET01-A4), strain PM 6391. Type of assay: cell-based. Conditions: Pasteurella multocida strain PM 6391, broth-microdilution; unit assumed. In short, it runs like this: as §1
With `Cc1ccc(CNCc2ccc(C#Cc3ccc(C(=O)NC(C(=O)NO)C(C)(C)O)cc3)cc2)cc1` (stereo not shown) [Compound 233], the MIC PM 6391 amounted to 0.2 µg/mL (≈ 0.412 µM).

Regarding `CC(C)(O)[C@H](NC(=O)c1ccc(C#Cc2ccc(CNCc3ccccc3)cc2)cc1)C(=O)NO` [Compound 223], the MIC PM 6391 is not above 0.1 µg/mL.

`CSC(C)(C)[C@H](NC(=O)c1ccc(C#Cc2ccc(CNCc3ccccn3)s2)cc1)C(=O)NO` [Compound 307] returned an MIC PM 6391 of 0.4 µg/mL (≈ 0.786 µM).

With `CON=C(C)[C@H](NC(=O)c1ccc(C#Cc2ccc(CNC3CC3)cc2)cc1)C(=O)NO` [Compound 378], the MIC PM 6391 is not above 0.1 µg/mL.

A further assay relates to Pasteurella multocida PM 10775 (080130003051, BRD field isolate). The assay can be described thus: MIC, broth-microdilution (CLSI VET01-A4), strain PM 10775. Type of assay: cell-based. Conditions: Pasteurella multocida strain PM 10775, broth-microdilution; unit assumed. In short, it runs like this:
as §1
Regarding `Cc1ccc(CNCc2ccc(C#Cc3ccc(C(=O)NC(C(=O)NO)C(C)(C)O)cc3)cc2)cc1` (stereo not shown) [Compound 233], the MIC PM 10775 is not above 0.1 µg/mL.

For the compound `CC(C)(O)[C@H](NC(=O)c1ccc(C#Cc2ccc(CNCc3ccccc3)cc2)cc1)C(=O)NO` [Compound 223], the MIC PM 10775 was not above 0.1 µg/mL.

The compound `CSC(C)(C)[C@H](NC(=O)c1ccc(C#Cc2ccc(CNCc3ccccn3)s2)cc1)C(=O)NO` [Compound 307] showed an MIC PM 10775 not above 0.1 µg/mL.

The compound `CON=C(C)[C@H](NC(=O)c1ccc(C#Cc2ccc(CNC3CC3)cc2)cc1)C(=O)NO` [Compound 378] yielded an MIC PM 10775 of 0.4 µg/mL (≈ 0.921 µM).

The next assay deals with Pasteurella multocida PM 12080 (IV102277-0093, BRD field isolate). The assay can be described thus: MIC, broth-microdilution (CLSI VET01-A4), strain PM 12080. Conditions: Pasteurella multocida strain PM 12080, broth-microdilution; unit assumed. In kind it is cell-based. In short, it runs like this:
as §1
On to `Cc1ccc(CNCc2ccc(C#Cc3ccc(C(=O)NC(C(=O)NO)C(C)(C)O)cc3)cc2)cc1` (stereo not shown) [Compound 233], for which the MIC PM 12080 is not above 0.1 µg/mL.

With `CC(C)(O)[C@H](NC(=O)c1ccc(C#Cc2ccc(CNCc3ccccc3)cc2)cc1)C(=O)NO` [Compound 223], the MIC PM 12080 was not above 0.1 µg/mL.

Turning to `CSC(C)(C)[C@H](NC(=O)c1ccc(C#Cc2ccc(CNCc3ccccn3)s2)cc1)C(=O)NO` [Compound 307], the MIC PM 12080 is 0.4 µg/mL (≈ 0.786 µM).

For `CON=C(C)[C@H](NC(=O)c1ccc(C#Cc2ccc(CNC3CC3)cc2)cc1)C(=O)NO` [Compound 378], the MIC PM 12080 came out at 0.2 µg/mL (≈ 0.46 µM).

The next assay concerns Mannheimia haemolytica MH 10720 (154, BRD field isolate). As to the kind of experiment: MIC, broth-microdilution (CLSI VET01-A4), strain MH 10720. Type of assay: cell-based. Conditions: Mannheimia haemolytica strain MH 10720, broth-microdilution; unit assumed. In short, it runs like this:
as §1
Compound `Cc1ccc(CNCc2ccc(C#Cc3ccc(C(=O)NC(C(=O)NO)C(C)(C)O)cc3)cc2)cc1` (stereo not shown) [Compound 233] displayed an MIC MH 10720 not above 0.1 µg/mL.

Compound `CC(C)(O)[C@H](NC(=O)c1ccc(C#Cc2ccc(CNCc3ccccc3)cc2)cc1)C(=O)NO` [Compound 223] yielded an MIC MH 10720 not above 0.1 µg/mL.

The compound `CSC(C)(C)[C@H](NC(=O)c1ccc(C#Cc2ccc(CNCc3ccccn3)s2)cc1)C(=O)NO` [Compound 307] returned an MIC MH 10720 not above 0.1 µg/mL.

On to `CON=C(C)[C@H](NC(=O)c1ccc(C#Cc2ccc(CNC3CC3)cc2)cc1)C(=O)NO` [Compound 378], for which the MIC MH 10720 was determined as 0.4 µg/mL (≈ 0.921 µM).

The next assay relates to Mannheimia haemolytica MH 6374 (ATCC 33396, reference strain). The assay can be described thus: MIC, broth-microdilution (CLSI VET01-A4), strain MH 6374. In kind it is cell-based. The following applies: Mannheimia haemolytica strain MH 6374, broth-microdilution; unit assumed. In short, it runs like this:
as §1
Regarding `Cc1ccc(CNCc2ccc(C#Cc3ccc(C(=O)NC(C(=O)NO)C(C)(C)O)cc3)cc2)cc1` (stereo not shown) [Compound 233], the MIC MH 6374 was found to be 0.4 µg/mL (≈ 0.824 µM).

Compound `CC(C)(O)[C@H](NC(=O)c1ccc(C#Cc2ccc(CNCc3ccccc3)cc2)cc1)C(=O)NO` [Compound 223] returned an MIC MH 6374 of 0.4 µg/mL (≈ 0.848 µM).

`CSC(C)(C)[C@H](NC(=O)c1ccc(C#Cc2ccc(CNCc3ccccn3)s2)cc1)C(=O)NO` [Compound 307] came in with an MIC MH 6374 of 0.8 µg/mL (≈ 1.57 µM).

The compound `CON=C(C)[C@H](NC(=O)c1ccc(C#Cc2ccc(CNC3CC3)cc2)cc1)C(=O)NO` [Compound 378] gave an MIC MH 6374 of 0.8 µg/mL (≈ 1.84 µM).

For the next assay, the system named is Mannheimia haemolytica MH 6357 (M7/2, reference strain, cattle infection strain). As to the kind of experiment: MIC, broth-microdilution (CLSI VET01-A4), strain MH 6357. Type of assay: cell-based. The following applies: Mannheimia haemolytica strain MH 6357, broth-microdilution; unit assumed. In short, it runs like this:
as §1
On to `Cc1ccc(CNCc2ccc(C#Cc3ccc(C(=O)NC(C(=O)NO)C(C)(C)O)cc3)cc2)cc1` (stereo not shown) [Compound 233], for which the MIC MH 6357 was found to be 0.8 µg/mL (≈ 1.65 µM).

Regarding `CC(C)(O)[C@H](NC(=O)c1ccc(C#Cc2ccc(CNCc3ccccc3)cc2)cc1)C(=O)NO` [Compound 223], the MIC MH 6357 was 0.8 µg/mL (≈ 1.7 µM).

In turn, `CSC(C)(C)[C@H](NC(=O)c1ccc(C#Cc2ccc(CNCc3ccccn3)s2)cc1)C(=O)NO` [Compound 307] had an MIC MH 6357 of 0.8 µg/mL (≈ 1.57 µM).

`CON=C(C)[C@H](NC(=O)c1ccc(C#Cc2ccc(CNC3CC3)cc2)cc1)C(=O)NO` [Compound 378] showed an MIC MH 6357 of 0.8 µg/mL (≈ 1.84 µM).
